Molecular target: ATP-dependent translocase ABCB1 (Mus musculus, UniProt P21447)
Assay: TP_TRANSPORTER: increase in plasma concentration in PGP(-/-) mouse
Assay type: functional, organism-based
Details: in vivo

Chain of ATP-dependent translocase ABCB1 (P21447 whole entry): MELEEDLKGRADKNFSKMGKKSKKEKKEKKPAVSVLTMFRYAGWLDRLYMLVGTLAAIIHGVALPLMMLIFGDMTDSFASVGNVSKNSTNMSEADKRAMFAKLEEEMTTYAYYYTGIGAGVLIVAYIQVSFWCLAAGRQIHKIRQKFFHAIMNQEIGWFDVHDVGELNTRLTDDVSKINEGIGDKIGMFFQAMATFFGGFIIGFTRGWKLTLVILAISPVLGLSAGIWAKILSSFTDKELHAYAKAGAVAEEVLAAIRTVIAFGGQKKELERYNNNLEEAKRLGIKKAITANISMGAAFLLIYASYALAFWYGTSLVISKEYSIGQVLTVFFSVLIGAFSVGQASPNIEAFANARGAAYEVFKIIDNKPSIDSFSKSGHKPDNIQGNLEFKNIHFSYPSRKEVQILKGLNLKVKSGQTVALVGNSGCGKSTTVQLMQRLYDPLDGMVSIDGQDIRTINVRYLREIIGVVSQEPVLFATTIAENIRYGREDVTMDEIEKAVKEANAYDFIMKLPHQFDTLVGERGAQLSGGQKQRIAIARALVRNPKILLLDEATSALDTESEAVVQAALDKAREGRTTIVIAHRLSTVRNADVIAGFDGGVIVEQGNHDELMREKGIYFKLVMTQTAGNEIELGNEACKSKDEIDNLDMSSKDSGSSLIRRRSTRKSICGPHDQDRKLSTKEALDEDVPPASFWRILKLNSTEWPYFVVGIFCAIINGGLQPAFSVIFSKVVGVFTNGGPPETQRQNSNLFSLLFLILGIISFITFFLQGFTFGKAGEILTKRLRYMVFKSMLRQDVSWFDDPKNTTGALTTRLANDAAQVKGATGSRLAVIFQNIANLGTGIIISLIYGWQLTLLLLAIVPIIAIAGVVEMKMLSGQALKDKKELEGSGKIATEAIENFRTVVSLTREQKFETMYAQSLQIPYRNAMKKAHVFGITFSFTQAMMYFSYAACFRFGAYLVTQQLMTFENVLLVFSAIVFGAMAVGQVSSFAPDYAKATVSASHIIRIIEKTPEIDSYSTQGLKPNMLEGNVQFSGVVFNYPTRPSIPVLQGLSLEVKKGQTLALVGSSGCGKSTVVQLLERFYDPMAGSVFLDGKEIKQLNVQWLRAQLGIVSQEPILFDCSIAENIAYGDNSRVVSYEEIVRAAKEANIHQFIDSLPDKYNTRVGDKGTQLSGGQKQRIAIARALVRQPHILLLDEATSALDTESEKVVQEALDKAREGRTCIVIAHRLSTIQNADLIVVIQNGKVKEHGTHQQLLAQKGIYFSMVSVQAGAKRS

Activity: substrate [+]
Sequence: IVERMECTIN

Reference: ChEMBL document CHEMBL2074557 (Drug Metab Dispos, 1999)
